Measured values published in US12187742B2 (XRAD Therapeutics, Inc., priority 2018, dated 2025).
Where a name gives a salt, the structure may show the parent alone.

What was measured:
[1] = biological target: ATM (Homo sapiens (Human), UniProt Q13315); test: ATM in Cell Western Assay (pKAP1 in etoposide-treated MCF-7 cells); type: cell-based
Summary of the method: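 Cells received compounds in a 10-dose, 3-fold series from a 1 μM final top concentration, then 100 μM etoposide, for 1 hr at 37° C. They were then fixed with paraformaldehyde and permeabilized with 0.1% Triton X-100. After immunostaining, plates were scanned on an infrared imager.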

[2] = biological target: DNA-PK (Homo sapiens (Human), UniProt P78527); test: DNA-PK Enzyme-Linked Immunosorbent Assay (phosphorylation of GST-p53 (1-101) peptide); type: biochemical; settings: ELISA
Summary of the method: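 ELISA with plate-bound GST-p53 (1-101) phosphorylated by DNA-PK (0.1 μg/mL final) with 20 μM ATP for 1 h at 25 °C. Compounds tested over 10 3-fold doses from 100 nM top final. Phospho-p53 Ser15 detected by antibody, HRP and TMB, absorbance at 450 nm.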

[3] = pKAP1 in etoposide-treated MCF-7 cells
[4] = MCF-7 cells, etoposide 100 μM, 1 hr, pKAP1 readout

Sequence of ATM (Q13315 whole entry): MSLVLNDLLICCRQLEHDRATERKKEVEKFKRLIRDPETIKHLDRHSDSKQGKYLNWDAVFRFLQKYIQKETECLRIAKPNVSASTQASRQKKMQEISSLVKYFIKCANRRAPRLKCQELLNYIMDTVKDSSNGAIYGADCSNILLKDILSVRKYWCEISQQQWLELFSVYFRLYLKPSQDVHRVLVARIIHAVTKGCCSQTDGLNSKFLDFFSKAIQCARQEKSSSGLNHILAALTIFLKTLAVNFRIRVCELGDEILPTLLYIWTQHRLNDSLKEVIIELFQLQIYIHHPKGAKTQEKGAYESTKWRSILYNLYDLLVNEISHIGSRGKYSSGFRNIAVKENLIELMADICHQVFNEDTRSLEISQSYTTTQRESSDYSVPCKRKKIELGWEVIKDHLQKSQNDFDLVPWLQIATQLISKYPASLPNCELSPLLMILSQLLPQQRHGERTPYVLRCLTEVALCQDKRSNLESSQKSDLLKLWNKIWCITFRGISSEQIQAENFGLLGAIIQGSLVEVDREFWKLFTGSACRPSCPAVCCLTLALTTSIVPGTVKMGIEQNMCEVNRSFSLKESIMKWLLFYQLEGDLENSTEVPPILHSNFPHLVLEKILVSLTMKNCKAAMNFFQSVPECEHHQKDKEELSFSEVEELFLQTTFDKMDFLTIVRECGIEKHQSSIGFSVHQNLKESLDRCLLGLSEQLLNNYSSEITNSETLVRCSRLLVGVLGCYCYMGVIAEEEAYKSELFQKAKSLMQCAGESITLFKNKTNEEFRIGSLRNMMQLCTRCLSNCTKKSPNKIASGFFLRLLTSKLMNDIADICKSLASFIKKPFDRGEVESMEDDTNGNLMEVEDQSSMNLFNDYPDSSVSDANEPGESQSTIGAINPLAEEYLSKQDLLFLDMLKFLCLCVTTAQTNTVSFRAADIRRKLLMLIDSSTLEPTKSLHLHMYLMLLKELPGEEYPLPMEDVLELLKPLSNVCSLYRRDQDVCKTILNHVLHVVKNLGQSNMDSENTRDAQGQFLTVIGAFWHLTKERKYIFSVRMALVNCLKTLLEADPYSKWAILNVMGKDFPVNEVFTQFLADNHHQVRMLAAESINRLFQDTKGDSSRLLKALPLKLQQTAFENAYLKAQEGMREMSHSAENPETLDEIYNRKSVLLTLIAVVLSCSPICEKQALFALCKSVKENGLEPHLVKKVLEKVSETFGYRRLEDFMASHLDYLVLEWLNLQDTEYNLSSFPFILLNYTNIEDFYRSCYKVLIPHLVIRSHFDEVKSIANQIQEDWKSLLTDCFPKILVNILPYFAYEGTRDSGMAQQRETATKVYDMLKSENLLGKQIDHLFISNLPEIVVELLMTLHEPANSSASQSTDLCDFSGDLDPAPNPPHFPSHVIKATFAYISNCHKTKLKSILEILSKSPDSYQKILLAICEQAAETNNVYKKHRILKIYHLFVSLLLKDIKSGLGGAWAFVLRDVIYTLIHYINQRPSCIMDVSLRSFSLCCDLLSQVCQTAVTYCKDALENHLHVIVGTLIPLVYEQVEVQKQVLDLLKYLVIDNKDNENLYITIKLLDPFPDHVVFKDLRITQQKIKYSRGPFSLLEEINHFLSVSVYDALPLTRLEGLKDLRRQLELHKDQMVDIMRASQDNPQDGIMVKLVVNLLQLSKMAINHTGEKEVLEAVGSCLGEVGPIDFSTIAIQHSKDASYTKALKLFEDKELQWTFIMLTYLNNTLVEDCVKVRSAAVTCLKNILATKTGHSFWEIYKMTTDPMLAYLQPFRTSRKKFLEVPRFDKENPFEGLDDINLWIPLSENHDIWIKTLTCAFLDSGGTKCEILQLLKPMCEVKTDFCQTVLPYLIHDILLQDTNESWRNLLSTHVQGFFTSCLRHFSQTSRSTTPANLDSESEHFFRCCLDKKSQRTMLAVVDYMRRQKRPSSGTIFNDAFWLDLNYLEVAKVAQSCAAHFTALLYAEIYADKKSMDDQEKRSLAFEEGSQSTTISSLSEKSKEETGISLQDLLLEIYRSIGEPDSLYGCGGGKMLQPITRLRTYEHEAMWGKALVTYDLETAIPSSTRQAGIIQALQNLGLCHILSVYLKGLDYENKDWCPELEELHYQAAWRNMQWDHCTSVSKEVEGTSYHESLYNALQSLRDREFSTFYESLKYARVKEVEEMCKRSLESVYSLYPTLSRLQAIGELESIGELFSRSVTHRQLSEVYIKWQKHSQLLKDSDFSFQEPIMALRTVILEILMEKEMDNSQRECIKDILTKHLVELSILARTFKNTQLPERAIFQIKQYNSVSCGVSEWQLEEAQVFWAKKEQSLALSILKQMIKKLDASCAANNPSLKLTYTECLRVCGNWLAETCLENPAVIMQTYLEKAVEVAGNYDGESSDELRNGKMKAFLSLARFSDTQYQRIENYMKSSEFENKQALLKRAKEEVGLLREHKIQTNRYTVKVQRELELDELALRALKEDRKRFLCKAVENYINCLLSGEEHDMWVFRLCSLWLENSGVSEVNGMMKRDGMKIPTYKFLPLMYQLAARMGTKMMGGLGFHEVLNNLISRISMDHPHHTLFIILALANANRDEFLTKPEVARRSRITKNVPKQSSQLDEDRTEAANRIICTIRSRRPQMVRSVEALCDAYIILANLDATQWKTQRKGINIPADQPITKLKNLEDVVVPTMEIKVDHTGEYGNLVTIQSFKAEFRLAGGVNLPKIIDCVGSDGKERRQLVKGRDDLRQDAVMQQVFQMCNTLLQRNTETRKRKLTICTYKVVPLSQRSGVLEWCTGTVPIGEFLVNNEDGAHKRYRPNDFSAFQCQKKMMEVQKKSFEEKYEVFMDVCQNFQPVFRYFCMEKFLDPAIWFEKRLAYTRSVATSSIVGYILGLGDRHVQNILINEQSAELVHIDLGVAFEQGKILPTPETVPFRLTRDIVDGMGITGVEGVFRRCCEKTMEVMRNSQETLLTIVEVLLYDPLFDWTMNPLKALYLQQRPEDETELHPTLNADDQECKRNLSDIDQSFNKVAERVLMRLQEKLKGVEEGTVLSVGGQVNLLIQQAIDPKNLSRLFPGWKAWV

Structure (SMILES): CC(C)NCCOc1ncc(-c2cc3c(cc2F)ncc2c3[C@]3(C[C@H](c4ccccn4)C3)C(=O)N2C)cc1NS(C)(=O)=O [Example 434, cis-N-(5-(7′-Fluoro-3′-methyl-2′-oxo-3-(pyridin-2-yl)-2′,3′-dihydrospiro [cyclobutane-1,1′-pyrrolo[2,3-c]quinolin]-8′-yl)-2-(2-(isopropylamino)ethoxy)pyridin-3-yl)methanesulfonamide]
- IC50 [1, 3]: 1 to 100 nM
- IC50 ([2]; 20 μM ATP): 1 to 100 nM

Structure (SMILES): CN(C)CCCOc1ncc(-c2ccc3ncc4c(c3c2)C2(CCC2)C(=O)N4C)cc1NS(=O)(=O)c1cscn1 [Example 160, N-(2-(3-(Dimethylamino)propoxy)-5-(3′-methyl-2′-oxo-2′,3′-dihydrospiro[cyclobutane-1,1′-pyrrolo[2,3-c]quinolin]-8′-yl)pyridin-3-yl)thiazole-4-sulfonamide hydrochloride]
- IC50 [1, 4]: 1 to 100 nM
- IC50 ([2]; ATP 20 μM): < 0.5 nM

Structure (SMILES): CN1CCCN(c2ncc(-c3ccc4ncc5c(c4c3)C3(CC3)C(=O)N5C)cc2NS(=O)(=O)c2ccccc2)CC1 [Example 53, N-(2-(4-Methyl-1,4-diazepan-1-yl)-5-(3′-methyl-2′-oxo-2′,3′-dihydrospiro[cyclopropane-1,1′-pyrrolo[2,3-c]quinolin]-8′-yl)pyridin-3-yl)benzenesulfonamide]
- IC50 [1, 4]: 1 to 100 nM
- IC50 ([2]; ATP 20 μM): 1 to 100 nM

Structure (SMILES): CN1C(=O)C2(CCC2)c2c1cnc1ccc(-c3cnc(OCCCN4CCCCC4)c(NS(=O)(=O)C(F)F)c3)cc21 [Example 302, 1,1-Difluoro-N-(5-(3-methyl-2′-oxo-2′,3′-dihydrospiro[cyclobutane-1,1′-pyrrolo[2,3-c]quinolin]-8-yl)-2-(3-(piperidin-1-yl)propoxy)pyridin-3-yl)methanesulfonamide]
- IC50 [1, 4]: 1 to 100 nM
- IC50 ([2]; ATP 20 μM): < 0.5 nM

Structure (SMILES): CC(C)NCCOc1ncc(-c2cc3c(cc2F)ncc2c3[C@]3(C[C@H](OC(C)C)C3)C(=O)N2C)cc1NS(C)(=O)=O [Example 395, cis-N-(5-(7′-Fluoro-3-isopropoxy-3′-methyl-2′-oxo-2′,3′-dihydrospiro[cyclobutane-1,1′-pyrrolo[2,3-c]quinolin]-8′-yl)-2-(2-(isopropylamino)ethoxy)pyridin-3-yl)methanesulfonamide]
- IC50 [1, 3]: 1 to 100 nM
- IC50 ([2]; 20 μM ATP): 1 to 100 nM

Structure (SMILES): COc1ncc(-c2ccc3ncc4c(c3c2)C2(CC2)C(=O)N4C)cc1NS(=O)(=O)c1ccccc1 [Example 14, N-(2-Methoxy-5-(3′-methyl-2′-oxo-2′,3′-dihydrospiro [cyclopropane-1,1′-pyrrolo[2,3-c]quinolin]-8′-yl)pyridin-3-yl)benzenesulfonamide]
- IC50 [1, 4]: 1 to 100 nM
- IC50 ([2]; ATP 20 μM): < 0.5 nM

Structure (SMILES): CN(C)CCCOc1ncc(-c2cc3c4c(cnc3cc2F)N(C)C(=O)C42CCC2)cc1NS(C)(=O)=O [Example 291, N-(2-(3-(Dimethylamino)propoxy)-5-(7′-fluoro-3′-methyl-2′-oxo-2′,3′-dihydrospiro [cyclobutane-1,1′-pyrrolo[2,3-c]quinolin]-8′-yl)pyridin-3-yl)methanesulfonamide hydrochloride]
- IC50 [1, 4]: 1 to 100 nM
- IC50 ([2]; ATP 20 μM): 1 to 100 nM

Structure (SMILES): Cc1ccc(S(=O)(=O)Nc2cc(-c3ccc4ncc5c(c4c3)C3(CCC3)C(=O)N5C)cnc2OCCCN(C)C)cn1 [Example 137, N-(2-(3-(Dimethylamino)propoxy)-5-(3′-methyl-2′-oxo-2′,3′-dihydrospiro[cyclobutane-1,1′-pyrrolo[2,3-c]quinolin]-8′-yl)pyridin-3-yl)-6-methylpyridine-3-sulfonamide hydrochloride]
- IC50 [1, 4]: 1 to 100 nM
- IC50 ([2]; ATP 20 μM): 1 to 100 nM

Structure (SMILES): CC(C)NCCOc1ncc(-c2cc3c(cc2F)ncc2c3[C@]3(C[C@H](COC(C)C)C3)C(=O)N2C)cc1NS(=O)(=O)C(C)C [Example 412, cis-N-(5-(7′-Fluoro-3-(isopropoxymethyl)-3′-methyl-2′-oxo-2′,3′-dihydrospiro[cyclobutane-1,1′-pyrrolo[2,3-c]quinolin]-8′-yl)-2-(2-(isopropylamino)ethoxy)pyridin-3-yl)propane-2-sulfonamide]
- IC50 [1, 3]: 1 to 100 nM
- IC50 ([2]; 20 μM ATP): 1 to 100 nM

Structure (SMILES): Cc1ccccc1N1CC2(C1)C(=O)N(C)c1cnc3cc(F)c(-c4cnc(OCCNC(C)C)c(NS(C)(=O)=O)c4)cc3c12 [Example 528, N-(5-(7′-Fluoro-3′-methyl-2′-oxo-1-(o-tolyl)-2′,3′-dihydrospiro[azetidine-3,1′-pyrrolo[2,3-c]quinolin]-8′-yl)-2-(2-(isopropylamino)ethoxy)pyridin-3-yl)methanesulfonamide]
- IC50 [1, 3]: 1 to 100 nM
- IC50 ([2]; 20 μM ATP): < 0.5 nM

Structure (SMILES): CN(C)CCCOc1ncc(-c2ccc3ncc4c(c3c2)C2(CCC2)C(=O)N4C)cc1NS(=O)(=O)CCN(C)C [Example 264, 2-(Dimethylamino)-N-(2-(3-(dimethylamino)propoxy)-5-(3′-methyl-2′-oxo-2′,3′-dihydrospiro[cyclobutane-1,1′-pyrrolo[2,3-c]quinolin]-8′-yl)pyridin-3-yl)ethane-1-sulfonamide]
- IC50 [1, 4]: 0.5 to 1 nM
- IC50 ([2]; ATP 20 μM): 1 to 100 nM

Structure (SMILES): COC1CCN(CCCOc2ncc(-c3ccc4ncc5c(c4c3)C3(CCC3)C(=O)N5C)cc2NS(C)(=O)=O)C1 (stereo not shown) [Example 283, N-(2-(3-(3-Methoxypyrrolidin-1-yl)propoxy)-5-(3′-methyl-2′-oxo-2′,3′-dihydrospiro[cyclobutane-1,1′-pyrrolo[2,3-c]quinolin]-8′-yl)pyridin-3-yl)methanesulfonamide]
- IC50 [1, 4]: 1 to 100 nM
- IC50 ([2]; ATP 20 μM): 0.5 to 1 nM

Structure (SMILES): CN(C)CCCOc1ncc(-c2ccc3ncc4c(c3c2)C2(CC2)C(=O)N4C)cc1NS(=O)(=O)c1cc(Cl)cc(Cl)c1 [Example 125, 3.5-Dichloro-IN-(2-(3-(dimethylamino)propoxy)-5-(3′-methyl-2′-oxo-2′,3′-dihydrospiro[cyclopropane-1,1′-pyrrolo[2,3-c]quinolin]-8′-yl)pyridin-3-yl)benzenesulfonamide]
- IC50 [1, 4]: 1 to 100 nM
- IC50 ([2]; ATP 20 μM): < 0.5 nM

Structure (SMILES): CN(C)CCCOc1ncc(-c2ccc3ncc4c(c3c2)C2(CCC2)C(=O)N4C)cc1NS(=O)(=O)c1ccccn1 [Example 148, N-(2-(3-(Dimethylamino)propoxy)-5-(3′-methyl-2-oxo-2′,3′-dihydrospiro[cyclobulane-1,1′-pyrrolo[2,3-c]quinolin]-8′-yl)pyridin-3-yl)pyridine-2-sulfonamide hydrochloride]
- IC50 [1, 4]: 1 to 100 nM
- IC50 ([2]; ATP 20 μM): 1 to 100 nM

Structure (SMILES): CC1CCC12C(=O)N(C)c1cnc3ccc(-c4cnc(N5CC(N(C)C)C5)c(NS(C)(=O)=O)c4)cc3c12 (stereo not shown) [Example 325, N-(5-(2,3′-Dimethyl-2′-oxo-2′,3′-dihydrospiro[cyclobutane-1,1′-pyrrolo[2,3-c]quinolin]-8′-yl)-2-(3-(dimethylamino)azetidin-1-yl)pyridin-3-yl)methanesulfonamideformate]
- IC50 [1, 4]: 1 to 100 nM
- IC50 ([2]; ATP 20 μM): 1 to 100 nM

Structure (SMILES): Cc1ccc(S(=O)(=O)Nc2cc(-c3ccc4ncc5c(c4c3F)C3(CC3)C(=O)N5C)cnc2OCCCN(C)C)cc1 [Example 215, N-(2-(3-(Dimethylamino)propoxy)-5-(9′-fluoro-3′-methyl-2′-oxo-2′,3′-dihydrospiro[cyclopropane-1,1′-pyrrolo[2,3-c]quinolin]-8′-yl)pyridin-3-yl)-4-methylbenzenesulfonamide]
- IC50 [1, 4]: 0.5 to 1 nM
- IC50 ([2]; ATP 20 μM): < 0.5 nM

Structure (SMILES): COCc1ccc(N2CC3(C2)C(=O)N(C)c2cnc4cc(F)c(-c5cnc(OCCNC(C)C)c(NS(C)(=O)=O)c5)cc4c23)cc1 [Example 532, N-(5-(7′-Fluoro-1-(4-(methoxymethyl)phenyl)-3′-methyl-2′-oxo-2′,3′-dihydrospiro[azetidine-3,1′-pyrrolo[2,3-c]quinolin]-8′-yl)-2-(2-(isopropylamino)ethoxy)pyridin-3-yl)methanesulfonamide]
- IC50 [1, 3]: 1 to 100 nM
- IC50 ([2]; 20 μM ATP): < 0.5 nM
